Assay results reported in patent US20250145594A1, “MODULATORS OF THE INTEGRATED STRESS PATHWAY” (Calico Life Sciences LLC, priority 2020, published 2025).

Tested on: ATF4 luciferase reporter in HEK293T cells
Assay: ATF4-Luc assay (in vitro model of VWMD)
Format: cell-based, human
Details: Homo sapiens, HEK-293T, 7 h, HEK293T cells carrying the ATF4 luciferase reporter, 1 μg/mL tunicamycin, One Glo luminescence
Method in brief: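 Stable HEK293T line expressing firefly luciferase behind the human ATF4 5′-UTR, treated with 1 μg/mL tunicamycin plus compound for 7 hours. Luminescence read with One Glo; EC50 determined.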

Structure (SMILES)	EC50
O=C(NC12CC(n3cc(-c4ccc(C(F)(F)F)cn4)cn3)(C1)C2)[C@H]1CNc2cc(Cl)ccc2O1 [Compound 572, (2R)-6-chloro-N-(3-{4-[5-(trifluoromethyl)pyridin-2-yl]-1H-pyrazol-1-yl}bicyclo[1.1.1]pentan-1-yl)-3,4-dihydro-2H-1,4-benzoxazine-2-carboxamide]	< 0.01 µM
O=C(COc1ccc(Cl)c(F)c1)NC12CC(C(=O)NC34CC(C(F)(F)F)(C3)C4)(C1)C2 [Compound 353, 3-[2-(4-chloro-3-fluorophenoxy)acetamido]-N-[3-(trifluoromethyl)bicyclo[1.1.1]pentan-1-yl]bicyclo[1.1.1]pentane-1-carboxamide]	0.05 to 0.25 µM
O=C(CO[C@H]1C[C@@H](OC(F)(F)F)C1)NC12CC(NC(=O)[C@@H]3C[C@@H](O)c4cc(Cl)c(F)cc4O3)(C1)C2 [Compound 491, (2S,4R)-6-chloro-7-fluoro-4-hydroxy-N-[3-(2-{[(1s,3R)-3-(trifluoromethoxy)cyclobutyl]oxy}acetamido)bicyclo[1.1.1]pentan-1-yl]-3,4-dihydro-2H-1-benzopyran-2-carboxamide]	< 0.01 µM
O=C(NC12CC(n3cnc(-c4ccc(Cl)cc4F)c3)(C1)C2)[C@H]1C[C@@H](O)c2cc(Cl)ccc2O1 [Compound 343, (2R,4R)-6-chloro-N-{3-[4-(4-chloro-2-fluorophenyl)-1H-imidazol-1-yl]bicyclo[1.1.1]pentan-1-yl}-4-hydroxy-3,4-dihydro-2H-1-benzopyran-2-carboxamide]	< 0.01 µM
O=C(NC12CC(n3cc(C[C@H]4C[C@H](OC(F)(F)F)C4)cn3)(C1)C2)[C@H]1C[C@@H](O)c2cc(Cl)ccc2O1 [Compound 529, (2R,4R)-6-chloro-4-hydroxy-N-[3-(4-{[(1r,3S)-3-(trifluoromethoxy)cyclobutyl]methyl}-1H-pyrazol-1-yl)bicyclo[1.1.1]pentan-1-yl]-3,4-dihydro-2H-1-benzopyran-2-carboxamide]	0.01 to 0.05 µM
O=C(N[C@H]1CC[C@H](n2cc(OCCOC(F)(F)F)cn2)CC1)[C@H]1C[C@@H](O)c2cc(Cl)ccc2O1 [Compound 421, (2R,4R)-6-chloro-4-hydroxy-N-[(1r,4R)-4-{4-[2-(trifluoromethoxy)ethoxy]-1H-pyrazol-1-yl}cyclohexyl]-3,4-dihydro-2H-1-benzopyran-2-carboxamide]	< 0.01 µM
O=C(NC12CCC(n3cc(OCCOC(F)(F)F)cn3)(C1)C2)[C@H]1C[C@@H](O)c2cc(Cl)c(F)cc2O1 [Compound 590, (2R,4R)-6-chloro-7-fluoro-4-hydroxy-N-(4-{4-[2-(trifluoromethoxy)ethoxy]-1H-pyrazol-1-yl}bicyclo[2.1.1]hexan-1-yl)-3,4-dihydro-2H-1-benzopyran-2-carboxamide]	0.01 to 0.05 µM
O=C(NC12CC(n3cc(-c4ccc(OC(F)(F)F)cn4)cn3)(C1)C2)[C@H]1C[C@@H](O)c2ccccc2O1 [Compound 367, (2R,4R)-4-hydroxy-N-(3-{4-[5-(trifluoromethoxy)pyridin-2-yl]-1H-pyrazol-1-yl}bicyclo[1.1.1]pentan-1-yl)-3,4-dihydro-2H-1-benzopyran-2-carboxamide]	< 0.01 µM
O=C(NC12CC(n3cc(C(=O)N4CC(COC(F)(F)F)C4)cn3)(C1)C2)[C@H]1C[C@@H](O)c2cc(F)c(F)cc2O1 [Compound 374, (2R,4R)-6,7-difluoro-4-hydroxy-N-[3-(4-{3-[(trifluoromethoxy)methyl]azetidine-1-carbonyl}-1H-pyrazol-1-yl)bicyclo[1.1.1]pentan-1-yl]-3,4-dihydro-2H-1-benzopyran-2-carboxamide]	0.05 to 0.25 µM
O=C(NC12CC(n3cc(C4CCN(CC(F)(F)F)CC4)cn3)(C1)C2)[C@H]1C[C@@H](O)c2cc(Cl)ccc2O1 [Compound 580, (2R,4R)-6-chloro-4-hydroxy-N-(3-{4-[1-(2,2,2-trifluoroethyl)piperidin-4-yl]-1H-pyrazol-1-yl}bicyclo[1.1.1]pentan-1-yl)-3,4-dihydro-2H-1-benzopyran-2-carboxamide]	< 0.01 µM
O=C(COc1ccc(Cl)c(F)c1)N[C@H]1CC[C@H](n2cc(C(=O)N3CC[C@H](OC(F)(F)F)C3)cn2)CC1 [Compound 609, 2-(4-chloro-3-fluorophenoxy)-N-[(1S,4r)-4-{4-[(3S)-3-(trifluoromethoxy)pyrrolidine-1-carbonyl]-1H-pyrazol-1-yl}cyclohexyl]acetamide]	< 0.01 µM
O=C(NC12CC(n3cc(CCCCOC(F)(F)F)nn3)(C1)C2)[C@H]1C[C@@H](O)c2cc(Cl)ccc2O1 [Compound 465, (2R,4R)-6-chloro-4-hydroxy-N-(3-{4-[4-(trifluoromethoxy)butyl]-1H-1,2,3-triazol-1-yl}bicyclo[1.1.1]pentan-1-yl)-3,4-dihydro-2H-1-benzopyran-2-carboxamide]	< 0.01 µM
O=C(NC12CC(n3cc(-c4cnn(CC(F)(F)F)c4)cn3)(C1)C2)[C@H]1C[C@@H](O)c2cc(Cl)c(Cl)cc2O1 [Compound 565, (2R,4R)-6,7-dichloro-4-hydroxy-N-{3-[1′-(2,2,2-trifluoroethyl)-1H,1′H-[4,4′-bipyrazol]-1-yl]bicyclo[1.1.1]pentan-1-yl}-3,4-dihydro-2H-1-benzopyran-2-carboxamide]	< 0.01 µM
O=C(NC12CC(n3cc([C@@H]4C[C@H]4COC(F)(F)F)cn3)(C1)C2)[C@H]1C[C@@H](O)c2cc(Cl)ccc2O1 (mixture of isomers) [Compound 372, (2R,4R)-6-chloro-4-hydroxy-N-[3-(4-{(1RS,2RS)-2-[(trifluoromethoxy)methyl]cyclopropyl}-1H-pyrazol-1-yl)bicyclo[1.1.1]pentan-1-yl]-3,4-dihydro-2H-1-benzopyran-2-carboxamide]	0.01 to 0.05 µM
O=C(NC12CC(n3cc(CCCOC(F)(F)F)cn3)(C1)C2)[C@H]1C[C@@H](O)c2cc(C(F)(F)F)ccc2O1 [Compound 513, (2R,4R)-4-hydroxy-N-(3-{4-[3-(trifluoromethoxy)propyl]-1H-pyrazol-1-yl}bicyclo[1.1.1]pentan-1-yl)-6-(trifluoromethyl)-3,4-dihydro-2H-1-benzopyran-2-carboxamide]	< 0.01 µM
O=C(CO[C@H]1C[C@@H](OC(F)(F)F)C1)NC12CC(NC(=O)[C@H]3C[C@@H](O)c4cc(Cl)c(F)cc4O3)(C1)C2 [Compound 461, (2R,4R)-6-chloro-7-fluoro-4-hydroxy-N-[3-(2-{[(1s,3S)-3-(trifluoromethoxy)cyclobutyl]oxy}acetamido)bicyclo[1.1.1]pentan-1-yl]-3,4-dihydro-2H-1-benzopyran-2-carboxamide]	< 0.01 µM
COc1ncc(-c2cnn(C34CC(NC(=O)[C@@H]5C[C@H](O)c6cc(Cl)ccc6O5)(C3)C4)c2)cn1 [Compound 319, (2S,4S)-6-chloro-4-hydroxy-N-{3-[4-(2-methoxypyrimidin-5-yl)-1H-pyrazol-1-yl]bicyclo[1.1.1]pentan-1-yl}-3,4-dihydro-2H-1-benzopyran-2-carboxamide]	0.25 to 0.5 µM
COc1ncc(-c2cnn(C34CC(NC(=O)[C@H]5C[C@@H](O)c6cc(C(F)(F)F)c(F)cc6O5)(C3)C4)c2)cn1 [Compound 639, (2R,4R)-7-fluoro-4-hydroxy-N-{3-[4-(2-methoxypyrimidin-5-yl)-1H-pyrazol-1-yl]bicyclo[1.1.1]pentan-1-yl}-6-(trifluoromethyl)-3,4-dihydro-2H-1-benzopyran-2-carboxamide]	< 0.01 µM
O=C(NC12CC(c3ccc(-n4cnc(C(F)(F)F)c4)nc3)(C1)C2)[C@H]1C[C@@H](O)c2cc(Cl)ccc2O1 [Compound 559, (2R,4R)-6-chloro-4-hydroxy-N-(3-{6-[4-(trifluoromethyl)-1H-imidazol-1-yl]pyridin-3-yl}bicyclo[1.1.1]pentan-1-yl)-3,4-dihydro-2H-1-benzopyran-2-carboxamide]	0.01 to 0.05 µM
O=C(COc1ccc(Cl)c(F)c1)NC12CC(c3ccnc(OCCCOC(F)(F)F)c3)(C1)C2 [Compound 453, 2-(4-chloro-3-fluorophenoxy)-N-(3-{2-[3-(trifluoromethoxy)propoxy]pyridin-4-yl}bicyclo[1.1.1]pentan-1-yl)acetamide]	< 0.01 µM
O=C(NC12CC(n3cc(C(=O)N4CC(COC(F)(F)F)C4)cn3)(C1)C2)[C@H]1C[C@@H](O)c2cc(Cl)c(F)cc2O1 [Compound 363, (2R,4R)-6-chloro-7-fluoro-4-hydroxy-N-[3-(4-{3-[(trifluoromethoxy)methyl]azetidine-1-carbonyl}-1H-pyrazol-1-yl)bicyclo[1.1.1]pentan-1-yl]-3,4-dihydro-2H-1-benzopyran-2-carboxamide]	< 0.01 µM
O=C(N[C@H]1CC[C@H](n2cc(OCCOC(F)(F)F)cn2)CC1)[C@H]1C[C@@H](O)c2cc(F)c(F)cc2O1 [Compound 638, (2R,4R)-6,7-difluoro-4-hydroxy-N-[(1r,4R)-4-{4-[2-(trifluoromethoxy)ethoxy]-1H-pyrazol-1-yl}cyclohexyl]-3,4-dihydro-2H-1-benzopyran-2-carboxamide]	< 0.01 µM
O=C(NC12CC(c3cnc(OCCCOC(F)(F)F)o3)(C1)C2)[C@H]1C[C@@H](O)c2cc(Cl)c(F)cc2O1 [Compound 417, (2R,4R)-6-chloro-7-fluoro-4-hydroxy-N-(3-{2-[3-(trifluoromethoxy)propoxy]-1,3-oxazol-5-yl}bicyclo[1.1.1]pentan-1-yl)-3,4-dihydro-2H-1-benzopyran-2-carboxamide]	< 0.01 µM
O=C(NC12CC(n3cc(N4CC[C@@H](OC(F)(F)F)C4)cn3)(C1)C2)[C@H]1C[C@@H](O)c2cc(Cl)ccc2O1 [Compound 356, (2R,4R)-6-chloro-4-hydroxy-N-(3-{4-[(3R)-3-(trifluoromethoxy)pyrrolidin-1-yl]-1H-pyrazol-1-yl}bicyclo[1.1.1]pentan-1-yl)-3,4-dihydro-2H-1-benzopyran-2-carboxamide]	< 0.01 µM
O=C(NC12CC(n3cc(-c4ccc(C(F)(F)F)cn4)cn3)(C1)C2)[C@H]1C[C@@H](O)c2cc(C(F)(F)F)ccc2O1 [Compound 354, (2R,4R)-4-hydroxy-6-(trifluoromethyl)-N-(3-{4-[5-(trifluoromethyl)pyridin-2-yl]-1H-pyrazol-1-yl}bicyclo[1.1.1]pentan-1-yl)-3,4-dihydro-2H-1-benzopyran-2-carboxamide]	< 0.01 µM
